Results taken from ChEMBL document CHEMBL1201862, “PubChem BioAssay data set” (2004).
Active and inactive are the calls of the source.

Legend:
[1] = biological target: FAD-linked sulfhydryl oxidase ALR (Homo sapiens, UniProt P55789); experiment: ALR-catalysed DTT oxidation blockers – biochemical, H2O2 detection, luminescence, cherry-pick, dose response (AID 493248)
Cytochrome P450 3A4 = Cytochrome P450 3A4 (Homo sapiens, UniProt P08684);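 also: CYP3A4 tested as one member of a cytochrome P450 panel screen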
Large T antigen = Large T antigen (Simian virus 40, UniProt P03070); assay type: functional, Betapolyomavirus macacae;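 also: Confirmatory-stage PubChem screen for compounds that inhibit SV40 T antigen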
H9c2 = experiment: cells; assay type: functional, cell-based; settings: Rattus norvegicus, H9c2, Myocardium;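 also: confirmatory concentration-response retest of ultra-high-throughput screening hits for modulation of myocardial damage; cell death induced by hydrogen peroxide oxidative stress; compound pretreatment for 60 min then peroxide exposure for 2 h; potency is for protecting the cells against peroxide damage rather than for killing them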
Cytochrome P450 2D6 = Cytochrome P450 2D6 (Homo sapiens, UniProt P10635);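 also: CYP2D6 member of a cytochrome P450 panel assay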
[2] = biological target: T1, Polyadenylate-binding protein 1 (Homo sapiens, UniProt P11940); experiment: MLLE domain peptide-binding blockers, IC50 – biochemical, fluorescence polarization, FITC-PAM2 peptide, dose response (AID 602259); assay type: functional; settings: read-out: IC50_Mean
[3] = biological target: T2, RNA-binding protein pos-1 (Caenorhabditis elegans, UniProt G5EF15); experiment: disruptors of C. elegans POS-1 RNA interaction – biochemical, fluorescence polarization, dose response (AID 1964);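 also: purified POS-1 fused to maltose binding protein made in E. coli; potency of compounds blocking POS-1 binding to fluorescent RNA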
T2 sequence (G5EF15 whole entry): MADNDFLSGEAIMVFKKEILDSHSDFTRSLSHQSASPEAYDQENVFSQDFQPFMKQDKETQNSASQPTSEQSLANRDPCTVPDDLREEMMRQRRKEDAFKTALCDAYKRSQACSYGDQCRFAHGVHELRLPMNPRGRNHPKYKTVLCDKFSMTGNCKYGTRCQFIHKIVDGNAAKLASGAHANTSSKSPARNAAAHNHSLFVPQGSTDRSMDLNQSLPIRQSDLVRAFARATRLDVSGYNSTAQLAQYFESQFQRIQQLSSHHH

[4] = biological target: T3, Zinc finger protein mex-5 (Caenorhabditis elegans, UniProt Q9XUB2); experiment: potency of MEX-5 RNA-binding blockers – biochemical, C. elegans, fluorescence polarization, dose response (AID 1960)
T3 sequence (Q9XUB2 whole entry): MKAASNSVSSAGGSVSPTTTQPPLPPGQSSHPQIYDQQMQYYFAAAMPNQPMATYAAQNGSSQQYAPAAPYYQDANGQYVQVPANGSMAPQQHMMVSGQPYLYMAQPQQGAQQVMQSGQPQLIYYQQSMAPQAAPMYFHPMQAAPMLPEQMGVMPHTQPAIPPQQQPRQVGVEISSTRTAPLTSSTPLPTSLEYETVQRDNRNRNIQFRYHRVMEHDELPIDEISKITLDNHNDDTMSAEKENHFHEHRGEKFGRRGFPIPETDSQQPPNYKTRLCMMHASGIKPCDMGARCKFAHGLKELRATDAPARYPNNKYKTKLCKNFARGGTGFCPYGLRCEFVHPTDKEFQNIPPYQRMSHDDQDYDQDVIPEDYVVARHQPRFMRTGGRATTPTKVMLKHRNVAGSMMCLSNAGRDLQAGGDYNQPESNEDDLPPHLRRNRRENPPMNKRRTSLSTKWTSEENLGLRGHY

[5] = biological target: T1, Polyadenylate-binding protein 1; experiment: MLLE binding blockers, Cy5 peptide tracer – biochemical, fluorescence polarization, Cy5-PAM2 peptide, secondary, miRNA deadenylation inhibitor project, dose response (AID 602260); assay type: functional; settings: read-out: IC50_Mean
[6] = NIH-3T3 fibroblast cytotoxicity, dose response, cytotoxicity control, cell-based, fluorescence, Alamar Blue, secondary assay (AID 2327); assay type: functional;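 also: NIH-3T3 mouse fibroblasts cultured with fluconazole at 8 µg/mL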
[7] = fluconazole-exposed Candida albicans growth modulators – fluorescence, retest, confirmation (AID 2467); assay type: functional, cell-based
[8] = tested on: Streptococcus sp. 'group A'; experiment: Streptococcus pyogenes SK(-)GAS viability under kanamycin – luminescence, BacTiterGlo, confirmation, counter-screen for streptokinase expression inhibitor project, dose response (AID 1900); assay type: functional, organism-based
Streptokinase A = biological target: T4, Streptokinase A (Streptococcus pyogenes serotype M1, UniProt P10520); experiment: viability-normalized secreted streptokinase activity reduction – plasminogen activation absorbance, OD405, dose response (AID 1914); assay type: functional, Streptococcus pyogenes M1 GAS;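 also: secreted streptokinase activity via plasminogen activation per viability signal from cell pellet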
T4 sequence (P10520 whole entry): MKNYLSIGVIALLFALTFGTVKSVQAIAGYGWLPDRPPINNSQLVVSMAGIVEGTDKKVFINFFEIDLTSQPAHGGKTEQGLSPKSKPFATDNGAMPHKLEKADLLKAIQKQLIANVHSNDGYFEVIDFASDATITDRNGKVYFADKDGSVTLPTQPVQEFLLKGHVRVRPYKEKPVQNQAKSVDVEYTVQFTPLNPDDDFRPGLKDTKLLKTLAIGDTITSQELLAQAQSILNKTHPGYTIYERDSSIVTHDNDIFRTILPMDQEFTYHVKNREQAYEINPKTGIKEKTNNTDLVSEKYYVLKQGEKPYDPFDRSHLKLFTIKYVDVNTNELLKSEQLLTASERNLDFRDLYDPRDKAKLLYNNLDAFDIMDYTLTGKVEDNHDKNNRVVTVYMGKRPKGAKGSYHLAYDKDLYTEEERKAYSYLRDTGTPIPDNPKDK

cells = assay type: functional
Streptococcus = experiment: GAS UMAA2166 growth inhibition – luminescence, BacTiterGlo, counter-screen for streptokinase expression inhibitor project, dose response (AID 1915); assay type: functional, organism-based;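 also: potency for reduction of bacterial viability or growth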
[9] = viability of PTEN-deleted HCT116 cells – cell-based, HCT116 PTEN knockout, dose response (AID 1047); assay type: functional;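 also: HCT116 colon tumor cells with PTEN knocked out; cells exposed to compound for 60 hours before readout; potency for loss of cell viability measured by luminescence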
[10] = viability of HCT116 lacking mutant beta-catenin – cell-based, human colon tumor, dose response (AID 1045); assay type: functional;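 also: HCT116 colon tumor cells with beta catenin knocked out; cells exposed to compound for 60 hours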
Cytochrome P450 1A2 = biological target: T5, Cytochrome P450 1A2 (Homo sapiens, UniProt P05177);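 also: PubChem cytochrome P450 panel assay, CYP1A2 panel member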
T5 sequence (P05177 whole entry): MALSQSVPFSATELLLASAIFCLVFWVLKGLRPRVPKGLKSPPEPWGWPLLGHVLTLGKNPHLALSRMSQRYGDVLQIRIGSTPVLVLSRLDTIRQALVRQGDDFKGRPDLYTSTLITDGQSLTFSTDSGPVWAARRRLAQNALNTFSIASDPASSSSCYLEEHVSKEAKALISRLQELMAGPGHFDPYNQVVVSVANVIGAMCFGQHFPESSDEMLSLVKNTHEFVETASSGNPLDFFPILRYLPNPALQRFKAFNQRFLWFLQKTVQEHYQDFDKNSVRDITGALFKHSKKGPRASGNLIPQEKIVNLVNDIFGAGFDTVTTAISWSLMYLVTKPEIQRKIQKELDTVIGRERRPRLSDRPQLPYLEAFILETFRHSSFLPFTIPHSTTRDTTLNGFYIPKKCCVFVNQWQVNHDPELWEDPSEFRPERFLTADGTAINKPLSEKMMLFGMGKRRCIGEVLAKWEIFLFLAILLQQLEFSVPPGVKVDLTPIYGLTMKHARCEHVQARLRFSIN

[11] = biological target: T6, Rac GTPase-activating protein 1 (Homo sapiens, UniProt Q9H0H5); experiment: blockers of MgcRacGAP-driven Rac1 GTP hydrolysis – biochemical, ADP Hunter fluorescence, primary and confirmatory, confirmation (AID 624330); assay type: functional
T6 sequence (Q9H0H5 whole entry): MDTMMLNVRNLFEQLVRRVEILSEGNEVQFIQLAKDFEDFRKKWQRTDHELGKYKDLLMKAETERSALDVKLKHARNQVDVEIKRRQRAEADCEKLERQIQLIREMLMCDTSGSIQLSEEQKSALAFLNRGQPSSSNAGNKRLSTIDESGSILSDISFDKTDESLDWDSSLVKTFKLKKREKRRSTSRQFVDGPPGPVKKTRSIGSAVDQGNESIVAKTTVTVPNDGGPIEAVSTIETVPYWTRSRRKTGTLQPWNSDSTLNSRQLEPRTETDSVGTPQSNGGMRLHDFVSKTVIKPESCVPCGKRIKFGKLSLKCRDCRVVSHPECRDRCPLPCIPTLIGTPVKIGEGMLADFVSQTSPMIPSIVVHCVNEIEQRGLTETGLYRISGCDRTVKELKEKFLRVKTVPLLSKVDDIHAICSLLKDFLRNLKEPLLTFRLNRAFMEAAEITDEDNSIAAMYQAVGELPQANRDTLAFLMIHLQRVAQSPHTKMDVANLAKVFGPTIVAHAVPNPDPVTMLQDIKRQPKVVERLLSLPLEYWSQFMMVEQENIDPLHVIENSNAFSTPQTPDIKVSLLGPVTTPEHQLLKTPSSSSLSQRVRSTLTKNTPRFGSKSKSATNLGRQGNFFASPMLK

Large T antigen, sequence (P03070 whole entry): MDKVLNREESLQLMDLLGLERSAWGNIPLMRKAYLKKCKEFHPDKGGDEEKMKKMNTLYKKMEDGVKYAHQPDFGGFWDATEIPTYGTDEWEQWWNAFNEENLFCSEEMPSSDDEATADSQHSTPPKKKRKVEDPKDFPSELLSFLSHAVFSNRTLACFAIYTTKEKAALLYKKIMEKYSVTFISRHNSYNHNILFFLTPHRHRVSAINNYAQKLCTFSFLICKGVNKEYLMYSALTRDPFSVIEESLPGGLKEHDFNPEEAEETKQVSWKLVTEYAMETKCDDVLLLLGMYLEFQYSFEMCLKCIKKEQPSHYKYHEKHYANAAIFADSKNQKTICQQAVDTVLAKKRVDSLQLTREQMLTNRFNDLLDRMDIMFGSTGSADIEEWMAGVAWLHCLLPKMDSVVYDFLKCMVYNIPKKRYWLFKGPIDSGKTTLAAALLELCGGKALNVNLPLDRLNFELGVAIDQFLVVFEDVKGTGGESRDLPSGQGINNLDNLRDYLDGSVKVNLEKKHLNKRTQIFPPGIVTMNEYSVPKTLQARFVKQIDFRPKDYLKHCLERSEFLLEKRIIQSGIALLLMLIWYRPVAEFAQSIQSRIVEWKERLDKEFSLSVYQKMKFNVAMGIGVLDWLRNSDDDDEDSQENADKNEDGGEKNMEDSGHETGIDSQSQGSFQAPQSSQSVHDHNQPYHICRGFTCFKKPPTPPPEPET
FAD-linked sulfhydryl oxidase ALR, sequence (P55789 whole entry): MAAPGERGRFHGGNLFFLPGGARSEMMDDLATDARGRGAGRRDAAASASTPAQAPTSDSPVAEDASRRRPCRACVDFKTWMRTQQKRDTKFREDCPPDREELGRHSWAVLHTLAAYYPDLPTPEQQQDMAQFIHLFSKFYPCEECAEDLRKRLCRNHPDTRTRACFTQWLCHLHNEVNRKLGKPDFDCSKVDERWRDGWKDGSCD
T1 sequence (P11940 whole entry, the tested form may be a part): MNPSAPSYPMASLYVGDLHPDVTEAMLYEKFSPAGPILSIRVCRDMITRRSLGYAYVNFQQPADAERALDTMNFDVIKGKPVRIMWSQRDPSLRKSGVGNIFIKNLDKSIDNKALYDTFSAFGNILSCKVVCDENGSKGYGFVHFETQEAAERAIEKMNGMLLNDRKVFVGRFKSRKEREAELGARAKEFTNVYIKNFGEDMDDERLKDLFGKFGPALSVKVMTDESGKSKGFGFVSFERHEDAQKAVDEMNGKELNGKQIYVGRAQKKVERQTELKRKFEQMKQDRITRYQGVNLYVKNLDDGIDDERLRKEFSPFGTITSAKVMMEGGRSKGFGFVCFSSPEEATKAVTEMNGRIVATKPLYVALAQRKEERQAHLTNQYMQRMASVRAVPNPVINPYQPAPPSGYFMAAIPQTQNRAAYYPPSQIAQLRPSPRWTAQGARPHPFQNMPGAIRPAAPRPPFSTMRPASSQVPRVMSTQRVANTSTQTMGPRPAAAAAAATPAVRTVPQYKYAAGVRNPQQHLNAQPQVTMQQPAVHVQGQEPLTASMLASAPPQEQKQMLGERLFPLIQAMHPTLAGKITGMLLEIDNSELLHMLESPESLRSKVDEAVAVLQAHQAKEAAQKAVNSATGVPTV
Cytochrome P450 2D6, sequence (P10635 whole entry, the tested form may be a part): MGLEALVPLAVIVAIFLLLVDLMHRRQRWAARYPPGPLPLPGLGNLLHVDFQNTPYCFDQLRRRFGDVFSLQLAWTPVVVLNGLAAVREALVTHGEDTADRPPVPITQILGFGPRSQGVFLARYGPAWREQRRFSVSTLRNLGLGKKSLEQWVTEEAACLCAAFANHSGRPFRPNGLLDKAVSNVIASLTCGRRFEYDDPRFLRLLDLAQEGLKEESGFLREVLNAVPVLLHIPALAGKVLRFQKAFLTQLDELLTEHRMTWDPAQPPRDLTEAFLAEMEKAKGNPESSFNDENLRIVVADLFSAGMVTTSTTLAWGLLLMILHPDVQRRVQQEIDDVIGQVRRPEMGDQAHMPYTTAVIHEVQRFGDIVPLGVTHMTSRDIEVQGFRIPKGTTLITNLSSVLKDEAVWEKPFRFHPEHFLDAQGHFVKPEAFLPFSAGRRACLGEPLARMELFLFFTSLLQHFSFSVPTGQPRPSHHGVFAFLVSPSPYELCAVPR
Cytochrome P450 3A4, sequence (P08684 whole entry): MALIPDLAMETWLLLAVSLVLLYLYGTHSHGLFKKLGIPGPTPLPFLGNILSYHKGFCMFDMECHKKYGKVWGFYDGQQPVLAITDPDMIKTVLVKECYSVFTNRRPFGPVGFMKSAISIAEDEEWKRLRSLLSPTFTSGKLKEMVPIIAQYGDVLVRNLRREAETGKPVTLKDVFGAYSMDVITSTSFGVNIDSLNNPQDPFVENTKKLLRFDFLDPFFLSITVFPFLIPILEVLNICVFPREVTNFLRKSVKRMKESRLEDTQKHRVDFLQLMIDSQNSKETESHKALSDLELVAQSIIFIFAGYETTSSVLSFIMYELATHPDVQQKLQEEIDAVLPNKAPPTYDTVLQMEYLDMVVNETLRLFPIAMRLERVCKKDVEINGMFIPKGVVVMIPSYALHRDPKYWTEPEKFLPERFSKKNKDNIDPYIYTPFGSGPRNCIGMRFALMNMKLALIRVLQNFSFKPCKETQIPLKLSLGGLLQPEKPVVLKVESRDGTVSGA

SMILES: COc1ccc2cc(CCl)c(Cl)nc2c1
- AC50 [1]: 5.78 µM (active)

SMILES: CC(=O)Nc1ccc(N2CCCCC2)cc1
- AC50 (Cytochrome P450 3A4): 0.251 µM (inconclusive)
- IC50 (Large T antigen): 13.2 µM (active)
- AC50 [1]: 2.96 µM (active)

SMILES: CC(=O)Nc1ccc(-n2cc(-c3ccccc3)[nH]c2=S)cc1
- AC50 [1]: 6.42 µM (active)

SMILES: O=C(c1ccco1)N1CCN(C(=S)Nc2ccc(F)c(Cl)c2)CC1
- IC50 (Large T antigen): > 100 µM (active)

SMILES: CN(C)c1ccc(N2CC(C)(C)C2=O)cc1
- IC50 (Large T antigen): 4.39 µM (active)

SMILES: Cc1ccccc1C(C(=O)NCc1ccccc1)N(Cc1ccco1)C(=O)c1ccccn1 (stereo not given)
- IC50 (H9c2): > 79 µM (inactive)

SMILES: O=C(NCc1ccccn1)C(=O)NCC(c1ccco1)N1CCN(c2ccc(F)cc2)CC1 (stereo not given)
- AC50 [1]: 13.2 µM (active)

SMILES: CCn1c(SCC(=O)N2CCN(c3ccccc3)CC2)nc2c(c1=O)SC(C)C2 (stereo not given)
- IC50 (H9c2): 11.9 µM (active)

SMILES: CN(C)Cc1ccccc1-c1cncnc1NC1CC1
- AC50 (Cytochrome P450 2D6): 25.1 µM (inconclusive)

SMILES: N#CC1=C(N)C2=C(N3CCCCC3)CCCC2C1(C#N)C#N (stereo not given)
- IC50 [2]: > 66 µM (inactive)
- EC50 [3]: 89.4 µM (active)
- EC50 [4]: 77.1 µM (active)
- IC50 [5]: > 66 µM (inactive)
- IC50 (Large T antigen): 9.99 µM (active)

SMILES: CC(C)(C)NC(=O)COC(=O)c1c2c(nc3ccccc13)CCC2
- IC50 (H9c2): 6.79 µM (active)

SMILES: COc1ccc2nc(Nc3ccccc3OC)sc2c1
- AC50 [1]: 1.71 µM (active)

SMILES: O=C1CSC(c2ccccc2[N+](=O)[O-])N1c1cccc(F)c1 (stereo not given)
- AC50 [1]: 0.689 µM (active)

SMILES: Cc1ccc(SCC(=O)Nc2ccc3c(c2)C(=O)N(C)C3=O)cc1
- EC50 [6]: > 150 µM (inactive)
- EC50 [7]: > 38 µM (not active)

SMILES: Cc1ccc(OCCCCc2c(C)n[nH]c2C)cc1
- EC50 [8]: 16.3 µM (active)
- EC50 (Streptokinase A): > 150 µM (not active)
- IC50 (cells): 25.6 µM (active)
- EC50 (Streptococcus): > 150 µM (not active)

SMILES: Cc1ccc(S(=O)(=O)NC(CC(C)C)C(=O)Oc2ccc3c4c(c(=O)oc3c2)CCC4)cc1 (stereo not given)
- AC50 (Cytochrome P450 2D6): 15.8 µM (inconclusive)

SMILES: Cc1ccc(C)c(NC(=O)C(Sc2ncnc3ccccc23)c2ccccc2)c1 (stereo not given)
- EC50 [9]: 111 µM (active)
- EC50 [10]: 126 µM (active)
- IC50 (H9c2): 29.1 µM (active)

SMILES: O=C(NCc1ccco1)c1ccccc1NS(=O)(=O)c1ccc(Br)s1
- EC50 [6]: > 160 µM (inactive)
- AC50 (Cytochrome P450 1A2): 14.1 µM (inconclusive)
- EC50 [7]: 2.35 µM (active)

SMILES: Cc1ccc(NC(=O)c2cc(-c3cccs3)nc3ccccc23)nc1
- IC50 (H9c2): > 79 µM (inactive)

SMILES: COC(=O)CC1SC(=O)NC1=Nc1ccc(O)cc1 (stereo not given)
- IC50 [11]: 52.9 µM (active)
- IC50 (Large T antigen): 16.8 µM (active)

SMILES: COc1ccc(Cl)cc1NC(=O)CN(C)C(=O)CCc1nc(O)c2ccccc2n1
- IC50 (H9c2): > 79 µM (inactive)

SMILES: O=C(CCn1c(=O)oc2cc(Cl)ccc21)Nc1ccc(O)cc1
- IC50 (Large T antigen): 25.2 µM (active)

SMILES: Cc1ccc(-c2csc(N)n2)s1
- AC50 [1]: 0.732 µM (active)

SMILES: Nc1ccc(Nc2nc3ccccc3[nH]2)cc1
- IC50 (Large T antigen): 7.8 µM (active)

SMILES: O=C(NC(Cc1ccccc1)C(=O)NCc1ccccn1)c1ccco1 (stereo not given)
- EC50 [6]: > 150 µM (inactive)
- EC50 [7]: > 38 µM (not active)

SMILES: CC(CCc1ccccc1)NC(=O)CN1CCN(c2ccc(O)cc2)CC1 (stereo not given)
- EC50 [6]: 36.2 µM (active)

SMILES: CC(=O)c1ccc(N2CCN(C(=O)c3cc(-c4cccnc4)nc4ccc(Br)cc34)CC2)cc1
- IC50 (H9c2): > 79 µM (inactive)

SMILES: Cc1ccc(-c2nnc(O)c3ccccc23)cc1S(=O)(=O)NC(C)(C)C
- IC50 (H9c2): > 79 µM (inactive)

SMILES: CC(=O)Oc1ccc(-c2cccc(C(=O)N(C)c3ccc(O)cc3)c2)cc1
- AC50 [1]: 22.9 µM (active)

SMILES: O=C(COc1ccccc1Cl)NNC(=O)Cn1[nH]c(=O)c2ccccc2c1=O
- IC50 (H9c2): > 79 µM (inactive)

SMILES: COC(=O)Cc1cc(=O)n(-c2nc3ccccc3s2)[nH]1
- EC50 [6]: > 150 µM (inactive)
- EC50 [7]: 21.7 µM (active)

SMILES: COc1cc(/C(C)=N/NC(=O)CSc2nc3ccccc3[nH]2)ccc1O
- IC50 (Large T antigen): 22.9 µM (active)

SMILES: C/C(=N\NC(=O)CCC(=O)Nc1ccc(C)c(C)c1)C1CC1
- EC50 [6]: > 150 µM (inactive)
- EC50 [7]: > 38 µM (not active)

SMILES: COc1cc(/C=N/NC(=O)c2cccc([N+](=O)[O-])c2)ccc1O
- IC50 [11]: 29 µM (active)
- IC50 (Large T antigen): 5.73 µM (active)

SMILES: C/C(CC(=O)Nc1ccc(N(C)C)cc1)=N\NC(=O)c1ccc(Cl)cc1Cl
- IC50 (Large T antigen): 9.26 µM (active)

SMILES: CN(C)c1nc(Oc2ccc(/C=N/O)cc2)nc(N(C)C)n1
- AC50 [1]: 0.156 µM (active)
